Test results as given in US5391486A, “Physiologically active substance BE-16627” (Banyu Pharmaceutical Co., Ltd., priority 1989, dated 1995).

Experiments:
Trypsin = molecular target: T1, Trypsin (Bos taurus, UniProt P00760); experiment: Trypsin inhibition in vitro (substrate A: 3H casein); assay type: biochemical; conditions: bovine
T1 sequence (P00760 24-246): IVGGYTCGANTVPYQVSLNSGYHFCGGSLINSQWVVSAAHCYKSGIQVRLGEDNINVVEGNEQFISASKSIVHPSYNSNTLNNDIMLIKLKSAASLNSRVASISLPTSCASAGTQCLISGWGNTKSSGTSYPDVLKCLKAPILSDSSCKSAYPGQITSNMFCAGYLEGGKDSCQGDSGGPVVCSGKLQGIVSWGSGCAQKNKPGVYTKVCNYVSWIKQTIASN
Protocol: (§1) An inhibitory activity of BE-16627A and B to various proteases including stromelysin and collagenase was determined by an in-vitro test. As stromelysin (human), prostromelysin prepared by genetic engineering (Celltech., GB) was used by treating it with trypsin (10 μg/ml) at 37° C. for 10 minutes and inhibiting a residual trypsin activity with soybean trypsin inhibitor (50 μg/ml).
(§2) Substrate A: ^3 Hcasein

Chymotrypsin = Chymotrypsin (Bos taurus, UniProt P00766); experiment: Chymotrypsin inhibition in vitro (substrate A: 3H casein); assay type: biochemical; conditions: bovine
Protocol: as §1, §2

Solubility = assay type: physicochemical
Papain = molecular target: T2, Papain (Carica papaya, UniProt P00784); experiment: Papain inhibition in vitro (substrate A: 3H casein); assay type: biochemical; conditions: papaya latex
T2 construct: from tissue; host or cells: Papaya latex
T2 sequence (P00784 134-345): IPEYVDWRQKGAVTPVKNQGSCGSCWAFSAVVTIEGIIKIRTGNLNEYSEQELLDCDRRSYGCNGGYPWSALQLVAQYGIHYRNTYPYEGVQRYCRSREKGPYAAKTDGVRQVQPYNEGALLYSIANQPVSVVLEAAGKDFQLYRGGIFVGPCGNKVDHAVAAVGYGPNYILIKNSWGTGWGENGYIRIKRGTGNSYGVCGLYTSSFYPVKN
Protocol: as §1, §2

[1] = tested on: mouse cultured cancer cells (P388); experiment: cells; assay type: cell-based
Stromelysin = molecular target: T3, Stromelysin (Homo sapiens, UniProt P08254); experiment: Stromelysin inhibition in vitro (substrate A: 3H casein); assay type: biochemical, Human (Recombinant); conditions: for inhibition of stromelysin (human) relative to other enzymes: in words, from Table 1, next collagenase and thermolysin; for IC50: stromelysin, human recombinant, substrate A (3H casein)
T3 construct: prostromelysin prepared by genetic engineering (Celltech., GB) was used by treating it with trypsin; purchased Celltech., GB
Protocol: As stromelysin (human), prostromelysin prepared by genetic engineering (Celltech., GB) was used by treating it with trypsin (10 μg/ml) at 37° C. for 10 minutes and inhibiting a residual trypsin activity with soybean trypsin inhibitor (50 μg/ml).
as §2

Pepsin = Pepsin (Sus scrofa, UniProt P00791); experiment: Pepsin inhibition in vitro (substrate A: 3H casein); assay type: biochemical; conditions: porcine
Protocol: as §1, §2

Elastase = Elastase (Sus scrofa, UniProt P00772); experiment: Elastase inhibition in vitro (substrate B: Succinylalanyl-prolyl-alanyl-methylcumarylamide); assay type: biochemical; conditions: porcine
Protocol: as §1
Substrate B: Succinylalanyl-prolyl-alanyl-methylcumarylamide

metal enzymes = experiment: Inhibitory activity to various proteases (metal enzymes versus others); assay type: biochemical; conditions: in words, from Table 1
Protocol: as §1

Thermolysin = Thermolysin (Bacillus thermoproteolyticus, UniProt P00800); experiment: Thermolysin inhibition in vitro (substrate A: 3H casein); assay type: biochemical, Bacillus thermo-proteolyticus
Protocol: as §1, §2

Collagenase = Collagenase inhibition in vitro (substrate A: 3H casein); assay type: biochemical; conditions: Chlostridium histriticum
Protocol: as §1, §2

[2] = in an organic solvent such as chloroform, ethyl acetate, benzene, hexane and the like

T3 sequence (P08254 100-477): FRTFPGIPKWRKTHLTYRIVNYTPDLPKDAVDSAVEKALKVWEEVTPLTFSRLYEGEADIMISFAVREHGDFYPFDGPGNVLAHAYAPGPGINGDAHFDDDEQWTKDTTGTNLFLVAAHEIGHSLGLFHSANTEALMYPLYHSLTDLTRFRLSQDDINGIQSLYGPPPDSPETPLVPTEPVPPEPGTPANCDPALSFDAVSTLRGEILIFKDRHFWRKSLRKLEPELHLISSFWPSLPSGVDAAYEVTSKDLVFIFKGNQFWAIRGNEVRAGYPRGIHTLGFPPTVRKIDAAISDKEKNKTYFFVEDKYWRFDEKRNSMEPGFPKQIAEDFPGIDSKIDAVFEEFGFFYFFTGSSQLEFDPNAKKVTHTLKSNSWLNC
Pepsin, sequence (P00791 60-385): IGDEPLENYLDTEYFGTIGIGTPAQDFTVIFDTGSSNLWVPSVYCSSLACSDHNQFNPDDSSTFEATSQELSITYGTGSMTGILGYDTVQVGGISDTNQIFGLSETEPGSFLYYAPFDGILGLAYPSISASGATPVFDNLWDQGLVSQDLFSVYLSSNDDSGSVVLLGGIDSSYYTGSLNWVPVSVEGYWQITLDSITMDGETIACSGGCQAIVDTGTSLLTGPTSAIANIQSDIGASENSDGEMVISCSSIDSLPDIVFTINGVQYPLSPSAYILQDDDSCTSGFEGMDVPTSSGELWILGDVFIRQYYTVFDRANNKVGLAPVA
Elastase, sequence (P00772 27-266): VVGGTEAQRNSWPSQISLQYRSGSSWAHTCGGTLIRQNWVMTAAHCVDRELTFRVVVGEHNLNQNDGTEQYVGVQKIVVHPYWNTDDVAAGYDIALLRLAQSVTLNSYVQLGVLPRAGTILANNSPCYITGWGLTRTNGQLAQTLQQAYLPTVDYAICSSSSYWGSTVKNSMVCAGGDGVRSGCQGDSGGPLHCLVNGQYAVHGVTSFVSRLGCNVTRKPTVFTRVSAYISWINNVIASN
Thermolysin, sequence (P00800 233-548): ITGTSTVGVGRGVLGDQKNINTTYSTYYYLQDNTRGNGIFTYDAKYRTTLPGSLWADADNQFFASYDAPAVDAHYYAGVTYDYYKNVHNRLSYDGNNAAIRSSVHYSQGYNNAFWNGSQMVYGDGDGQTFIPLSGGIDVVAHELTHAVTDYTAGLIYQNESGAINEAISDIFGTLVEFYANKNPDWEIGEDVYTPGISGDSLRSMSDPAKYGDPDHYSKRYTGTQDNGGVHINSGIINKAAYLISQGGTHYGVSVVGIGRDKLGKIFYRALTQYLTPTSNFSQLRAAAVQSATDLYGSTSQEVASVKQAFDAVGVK

## CC(C)CC(CC(=O)NO)C(=O)NC(CO)C(=O)NC(C(=O)O)C(C)C (stereo not drawn) [BE-16627B]
Trypsin
  IC50: > 266 µM
Chymotrypsin
  IC50: > 266 µM
Solubility; in an alkaline water
  Solubility: readily soluble
Solubility; [2]
  Solubility: almost insoluble
Papain
  IC50: > 266 µM
[1]
  cytotoxicity: low cytotoxicity
Stromelysin
  inhibition of stromelysin (human) relative to other enzymes: most strongly inhibited
  IC50: 0.58 µM
Pepsin
  IC50: > 266 µM
Elastase
  IC50: > 266 µM
Metal enzymes
  inhibition of the activity of metal enzymes: specifically inhibited
Thermolysin
  IC50: 2.4 µM
Collagenase
  IC50: 2.7 µM

## CCCC(CC(=O)NO)C(=O)NC(CO)C(=O)NC(C(=O)O)C(C)C (stereo not drawn) [BE-16627A]
Trypsin
  IC50: > 276 µM
Chymotrypsin
  IC50: > 276 µM
Solubility; in an alkaline water
  Solubility: readily soluble
Solubility; [2]
  Solubility: almost insoluble
Papain
  IC50: 138 µM
[1]
  cytotoxicity: low cytotoxicity
[1]; Mus musculus, P388, read-out: IC50 value (cytotoxic test)
  IC50: ≥ 100 µg/mL
Stromelysin
  inhibition of stromelysin (human) relative to other enzymes: most strongly inhibited
  IC50: 5 µM
Pepsin
  IC50: > 276 µM
Elastase
  IC50: > 276 µM
Metal enzymes
  inhibition of the activity of metal enzymes: specifically inhibited
Thermolysin
  IC50: 19.3 µM
Collagenase
  IC50: 11.6 µM
